Test results taken from patent publication US12350268B2, “Pharmaceutical compositions of PROTAC compounds and uses thereof” (Shenzhen Pharmacin Co., Ltd., priority 2022, dated 2025).

Assays:
[1] = Table 1, footnote 1: Heimbach et al., J Pharm Sci 108 (2019); cited from earlier work
[2] = PK of ARV-110 API, i.v. injection vs oral capsule, fasted beagle dogs (absolute oral bioavailability); assay type: in vivo; settings: for AUC(0-inf) / AUC(0-t) / Cmax: fasted condition, geometric mean
Method: The XRPD testing was performed on both API only (ARV-110) and the ASD formulation Batch No. P210803 using D2-Phasher (Bruker) equipment, and with the following parameters: generator, 30.0 kV/10.0 mA; detector, Lynxeye; wavelength, Cu Kal(1.54060); scan mode, continuous PSD fast; scan range, 4-40 degree; step Size, 0.01 degree; time/step, 0.5 s; sample stage rotation, 15 r/min. […] P210803 were in amorphous state. ARV-110 is still under developing in clinical stage. To measure the absolute oral bioavailability, the capsule filled with ARV-110 API was prepared only for oral administration in fasted condition. API was dissolved in DMA and Solutol mixed solution for injection. Three beagle dogs were tested in two dosing groups, one group was for oral, 50 mg dose per dog, and the other group for injection, 5 mg dose per dog. During the study, the dogs were allowed to drink water freely and were fasted for 12 hours before administration, all dogs were given food 4 hours after drug administration. Each dog was administered together with 50 ml water.
(§1) Blood samples were taken from each group of animals at the following time points: 0 h (before test drug administration), and 0.25, 0.5, 1, 1.5, 2, 4, 6, 8, 10, 24 h after the drug administration. ARV-110 plasma concentrations were analyzed by an LC-MS/MS method. The non-compartment model of software WinNonlin was used to calculate the pharmacokinetic parameters of each dog, Cmax, AUClast, and AUCinf. The geometric averages of each parameters were used for comparisons of the in vivo absorption under different dosing pretreatments.
The results shown in Table 3B include the geometric mean values as well as coefficient of variation (CV) of the pharmacokinetic parameters of the two dosing groups. […] The absolute bioavailability of ARV-110 is about 6.0%.

[3] = Three-way crossover PK of ARV-110 API and ASD compositions, fed beagle dogs; settings: in vivo, 50 mg API per dog oral, fed condition, geometric mean
Method: Blood samples were taken from each group of animals at the different time points after the drug administration. Plasma concentrations were analyzed by an LC-MS/MS method. The non-compartment model of software WinNonlin was used to calculate the pharmacokinetic parameters of each dog, Cmax, AUClast and AUCinf. The geometric averages of each parameters were used for comparisons of the in vivo absorption under different doing pretreatments.
The capsules were given at the dose of 50 mg API per dog for oral administration for each group in fed condition.

[4] = PK of ARV-110 API capsules, fasted vs high-fat fed beagle dogs; assay type: in vivo; settings: API capsules 45 mg oral; for AUC(0-inf) / AUC(0-t) / Cmax: beagle, dog, in vivo, po, 45 mg, geometric mean
Method: Then, the capsule filled with ARV-110 API was prepared to compare the absorption advantage of our ASD formulation. Each capsule contained 45 mg ARV-110 API. The capsules were tested orally in three beagle dogs under two different dosing pretreatments (with or without high-fat food). During the study, the dogs were allowed to drink water freely and were fasted for 12 hours before administration, for the dosing pretreatment of the fasted condition, all dogs were given food 4 hours after drug administration. Each dog was administered together with 50 ml water. For the dosing pretreatment of the fed condition, all dogs were given a high-fat food 30 minutes prior to dosing.
as §1, with “and” for “and 0.25,”, “2, 3,” for “2,”, “4, 5,” for “4,”, “12, 24, 48, 72” for “24”, “AUClast” for “AUClast,”, “doing” for “dosing”
The results shown in Table 3C include the geometric mean values as well as coefficient of variation (CV) of the pharmacokinetic parameters of two dosing groups. […] The high-fat fed condition can enhance the oral absorption by about 6-folds compared to fasted condition.

[5] = cited from earlier work
[6] = PK of ARV-471 API, oral fasted and fed and i.v., beagle dogs; assay type: in vivo; settings: for AUC(0-inf) / AUC(0-t) / Cmax: geometric mean
Method: (§2) To investigate the oral absorption of ARV-110, two-way crossover or three-way crossover designs were performed. Six Beagle dogs were classified into two or three groups. Each group was administered capsules of different formulations comprising the API or API only at various dose to compare the API absorption in such formulations and also any difference in API absorption in fasted or fed conditions. Each dog was administered with 50 mL water in total. To measure the absolute bioavailability, i.v. injection of a solution comprising API was also performed. The API solution for i.v. injection was prepared by dissolving in DMA and Solutol mixed solution.
(§3) In fasted condition, the dogs were allowed to drink water freely and were fasted for 12 hours before administration, and then were given food 4 hours after drug administration.
(§4) In fed condition, the dogs were fed with high-fat food 30 mins before administration, according to the FDA guidance entitled “Assessing the effects of food on drug in INDs and NDAs-Clinical pharmacology considerations” published on Feb. 26, 2019.
as §1, with “different” for “following”, “points” for “points: 0 h (before test drug administration), and 0.25, 0.5, 1, 1.5, 2, 4, 6, 8, 10, 24 h”, “Plasma” for “ARV-110 plasma”, “AUClast” for “AUClast,”, “doing” for “dosing”
(§5) To investigate the oral absorption of ARV-471, the same study design and procedures as described in Example 3 were performed.
A three-dog, two-way crossover study was performed to evaluate oral bioavailability of ARV-471 API in beagle dogs in fasted and fed condition. A three-dog study was performed to measure the ARV-471 API bioavailability after i.v. injection in fasted condition. Each capsule was filled with 60 mg of API powder and a 6 mg/vial API solution was prepared. One capsule or one vial of API solution were administered to each dog according to the design of the two studies. The results shown in Table 5B include the geometric mean values as well as coefficient of variation (CV) of the pharmacokinetic parameters of the three dosing groups. […] The absolute bioavailability of ARV-471 API is about 7%, and high-fat food can enhance the oral absorption by 2 times.

[7] = PK of ARV-471 API high dose, fasted vs fed beagle dogs; assay type: in vivo; settings: for AUC(0-inf) / AUC(0-t) / Cmax: beagle, dog, plasma, po, 200 mg, API capsule 200 mg oral, geometric mean
Method: as §2, §3, §4
as §1, with “different” for “following”, “points” for “points: 0 h (before test drug administration), and 0.25, 0.5, 1, 1.5, 2, 4, 6, 8, 10, 24 h”, “Plasma” for “ARV-110 plasma”, “AUClast” for “AUClast,”, “doing” for “dosing”
as §5
A six-dog, two-way crossover study was performed to evaluate oral bioavailability of ARV-471 API dose escalation in beagle dogs in fasted and fed condition. There were two study groups, ARV-471 API orally administered in fasted condition and in fed condition, 200 mg of ARV-471 API was filled in each capsule. The capsules were given at the dose of 200 mg API per dog for oral administration for each group. The results shown in Table 5F include the geometric mean values as well as coefficient of variation (CV) of the pharmacokinetic parameters of two dosing groups.

[8] = Three-way crossover PK of ARV-471 API and ASD compositions, fed beagle dogs; assay type: in vivo; settings: dog, plasma, 60 mg of API oral, fed condition, geometric mean
Method: as §2, §4
as §1, with “different” for “following”, “points” for “points: 0 h (before test drug administration), and 0.25, 0.5, 1, 1.5, 2, 4, 6, 8, 10, 24 h”, “Plasma” for “ARV-110 plasma”, “AUClast” for “AUClast,”, “doing” for “dosing”
as §5
A six-dog, three-way crossover study was performed to evaluate oral bioavailability of ARV-471 API and ASD compositions in beagle dogs in fed condition. There were three study groups, ARV471 API administered in fed condition ASD composition batch no. P220215-1 administered in fed condition, and ASD composition batch no. P220215-2 administered in fed condition, each containing 2 dogs. Capsules were filled with API powder, ASD composition from batch no. P220215-1 and ASD composition from batch no. P220215-2, respectively. […]

[9] = beagle, in vivo, iv, I.V. injection 5 mg per dog
[10] = beagle, in vivo, API oral capsule 50 mg per dog
[11] = beagle, dog, plasma, iv, 6 mg, i.v. 6 mg, fasted condition
[12] = beagle, dog, plasma, po, 60 mg, API capsule oral 60 mg, fasted condition
[13] = beagle, dog, plasma, po, 60 mg, API capsule oral 60 mg, fed condition

N#Cc1ccc(O[C@H]2CC[C@H](NC(=O)c3ccc(N4CCC(CN5CCN(c6cc7c(cc6F)C(=O)N(C6CCC(=O)NC6=O)C7=O)CC5)CC4)nn3)CC2)cc1Cl (some centres unmarked) [ARV-110, N-((1r,4r)-4-(3-chloro-4-cyanophenoxy)cyclohexyl)-6-(4-((4-(2-(2,6-dioxopiperidin-3-yl)-6-fluoro-1,3-dioxoisoindolin-S-yl)piperazin-1-yl)methyl)piperidin-1-yl)pyridazine-3-carboxamide]
Calculated log P [1]: 5.8^1 | oral absorption (in words) ([2]; amorphous API, oral 50 mg, fasted dogs): poor absorption in fasted condition | bioavailability ([2]; beagle, dog, in vivo, 50 mg per dog, oral 50 mg vs i.v. 5 mg, fasted dogs): ~6% | AUC(0-inf) [2, 9]: 866 ng·h/mL | AUC(0-t) [2, 9]: 588 ng·h/mL | Cmax [2, 9]: 575 ng/mL | AUC(0-inf) [2, 10]: 279 ng·h/mL | AUC(0-t) [2, 10]: 162 ng·h/mL | Cmax [2, 10]: 10.7 ng/mL | AUC(0-inf) [3]: 3000 ng·h/mL | AUC(0-t) [3]: 2570 ng·h/mL | Cmax [3]: 80.3 ng/mL | enhancement of oral absorption, high-fat fed vs fasted condition [4]: about 6 folds | food effect (in words) ([4]; fed vs fasted): significant food effect | AUC(0-inf) ([4]; fasted condition): 278 ng·h/mL | AUC(0-t) ([4]; fasted condition): 218 ng·h/mL | Cmax ([4]; fasted condition): 7.6 ng/mL | AUC(0-inf) ([4]; fed condition (high-fat food)): 1550 ng·h/mL | AUC(0-t) ([4]; fed condition (high-fat food)): 1410 ng·h/mL | Cmax ([4]; fed condition (high-fat food)): 56.5 ng/mL | dissolution in the aqueous solution (in words) [5]: very hard to dissolve in the aqueous solution

O=C1CC[C@H](N2Cc3cc(N4CCN(CC5CCN(c6ccc([C@@H]7c8ccc(O)cc8CC[C@@H]7c7ccccc7)cc6)CC5)CC4)ccc3C2=O)C(=O)N1 [ARV-471, (3S)-3-[5-[4-[[1-[4-[(1R,2S)-6-hydroxy-2-phenyl-tetralin-1-yl]phenyl]-4-piperidyl]methyl]piperazin-1-yl]-1-oxo-isoindolin-2-yl]piperidine-2,6-dione]
enhancement of oral absorption by high-fat food ([6]; API oral 60 mg, fed vs fasted): 2 times | oral absorption (in words) ([6]; amorphous API oral 60 mg, fasted dogs): poor absorption in fasted condition | AUC(0-inf) [6, 11]: 3220 ng·h/mL | AUC(0-t) [6, 11]: 3120 ng·h/mL | Cmax [6, 11]: 609 ng/mL | AUC(0-inf) [6, 12]: 2480 ng·h/mL | AUC(0-t) [6, 12]: 2360 ng·h/mL | Cmax [6, 12]: 200 ng/mL | AUC(0-inf) [6, 13]: 5230 ng·h/mL | AUC(0-t) [6, 13]: 5020 ng·h/mL | Cmax [6, 13]: 428 ng/mL | bioavailability ([6]; beagle, dog, plasma, oral 60 mg vs i.v. 6 mg, fasted dogs, read-out: absolute bioavailability): ~7% | enhancement of oral absorption by high-fat food vs fasted condition ([7]; API 200 mg oral): 2 times | AUC(0-inf) ([7]; fasted condition): 7650 ng·h/mL | AUC(0-t) ([7]; fasted condition): 7140 ng·h/mL | Cmax ([7]; fasted condition): 415 ng/mL | AUC(0-inf) ([7]; fed condition): 15600 ng·h/mL | AUC(0-t) ([7]; fed condition): 14700 ng·h/mL | Cmax ([7]; fed condition): 860 ng/mL | AUC(0-inf) [8]: 5840 ng·h/mL | AUC(0-t) [8]: 5600 ng·h/mL | Cmax [8]: 381 ng/mL | dissolution in the aqueous solution (in words) [5]: very hard to dissolve in the aqueous solution
